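Values below derive from 48-hour exposures of cells grown in 96-well plates, with endpoints linearly interpolated between the two concentrations bracketing the appropriate inhibition level. TGI is the concentration that stops growth completely.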
Key:
Experiment in all cases: NCI anticancer screen, dose series, 48 h
786-0 renal = test system: 786-0 renal
A498 renal = test system: A498 renal
A549 NSCLC = test system: A549 NSCLC
ACHN renal = test system: ACHN renal
CAKI-1 renal = test system: CAKI-1 renal
CCRF-CEM leukemia = test system: CCRF-CEM leukemia
COLO 205 colon = test system: COLO 205 colon
DLD-1 colon = test system: DLD-1 colon
DMS 114 small cell lung = test system: DMS 114 small cell lung
DMS 273 small cell lung = test system: DMS 273 small cell lung
EKVX NSCLC = test system: EKVX NSCLC
HCC-2998 colon = test system: HCC-2998 colon
HCT-116 colon = test system: HCT-116 colon
HCT-15 colon = test system: HCT-15 colon
HL-60(TB) leukemia = test system: HL-60(TB) leukemia
HOP-18 NSCLC = test system: HOP-18 NSCLC
HOP-62 NSCLC = test system: HOP-62 NSCLC
HOP-92 NSCLC = test system: HOP-92 NSCLC
HT29 colon = test system: HT29 colon
IGROV1 ovarian = test system: IGROV1 ovarian
K-562 leukemia = test system: K-562 leukemia
KM12 colon = test system: KM12 colon
KM20L2 colon = test system: KM20L2 colon
LOX IMVI melanoma = test system: LOX IMVI melanoma
LXFL 529 NSCLC = test system: LXFL 529 NSCLC
M14 melanoma = test system: M14 melanoma
M19-MEL melanoma = test system: M19-MEL melanoma
MALME-3M melanoma = test system: MALME-3M melanoma
MOLT-4 leukemia = test system: MOLT-4 leukemia
NCI-H226 lung = test system: NCI-H226 lung
NCI-H23 lung = test system: NCI-H23 lung
NCI-H460 lung = test system: NCI-H460 lung
NCI-H522 lung = test system: NCI-H522 lung
OVCAR-3 ovarian = test system: OVCAR-3 ovarian
OVCAR-4 ovarian = test system: OVCAR-4 ovarian
OVCAR-5 ovarian = test system: OVCAR-5 ovarian
OVCAR-8 ovarian = test system: OVCAR-8 ovarian
RPMI-8226 leukemia = test system: RPMI-8226 leukemia
RXF 393 renal = test system: RXF 393 renal
SF-268 CNS = test system: SF-268 CNS
SF-295 CNS = test system: SF-295 CNS
SF-539 CNS = test system: SF-539 CNS
SK-MEL-2 melanoma = test system: SK-MEL-2 melanoma
SK-MEL-28 melanoma = test system: SK-MEL-28 melanoma
SK-MEL-5 melanoma = test system: SK-MEL-5 melanoma
SK-OV-3 ovarian = test system: SK-OV-3 ovarian
SN12C renal = test system: SN12C renal
SNB-19 CNS = test system: SNB-19 CNS
SNB-75 CNS = test system: SNB-75 CNS
SNB-78 CNS = test system: SNB-78 CNS
SR leukemia = test system: SR leukemia
SW-620 colon = test system: SW-620 colon
TK-10 renal = test system: TK-10 renal
U251 CNS = test system: U251 CNS
UACC-257 melanoma = test system: UACC-257 melanoma
UACC-62 melanoma = test system: UACC-62 melanoma
UO-31 renal = test system: UO-31 renal

Measured: TGI

CC(=O)NC(CCCN(Cc1ccccc1)C(=O)NCCCl)C(=O)NCc1ccccc1 (configuration not stated)
> 100 µM: 786-0 renal | A498 renal | A549 NSCLC | ACHN renal | CAKI-1 renal | CCRF-CEM leukemia | COLO 205 colon | DLD-1 colon | DMS 114 small cell lung | DMS 273 small cell lung | EKVX NSCLC | HCC-2998 colon | HCT-116 colon | HCT-15 colon | HL-60(TB) leukemia | HOP-18 NSCLC | HOP-62 NSCLC | HOP-92 NSCLC | HT29 colon | IGROV1 ovarian | K-562 leukemia | KM12 colon | KM20L2 colon | LOX IMVI melanoma | LXFL 529 NSCLC | M14 melanoma | M19-MEL melanoma | MALME-3M melanoma | MOLT-4 leukemia | NCI-H226 lung | NCI-H23 lung | NCI-H460 lung | NCI-H522 lung | OVCAR-3 ovarian | OVCAR-4 ovarian | OVCAR-5 ovarian | OVCAR-8 ovarian | RPMI-8226 leukemia | RXF 393 renal | SF-268 CNS | SF-295 CNS | SF-539 CNS | SK-MEL-2 melanoma | SK-MEL-28 melanoma | SK-MEL-5 melanoma | SK-OV-3 ovarian | SN12C renal | SNB-19 CNS | SNB-75 CNS | SNB-78 CNS | SR leukemia | SW-620 colon | TK-10 renal | U251 CNS | UACC-257 melanoma | UACC-62 melanoma | UO-31 renal

Reference: PubChem BioAssay (NCI)
